Assays:
Assay in all cases: radiometric filter-binding kinase assay
[1] = target: ABL1 (human) (UniProt P00519)
[2] = target: AURKB (human) (UniProt Q96GD4)
[3] = target: CDK9 CCNT1 (human) (UniProt P50750+O60563)
[4] = target: CSNK1G2 (human) (UniProt P78368)
[5] = target: DDR2 (human) (UniProt Q16832)
[6] = target: EIF2AK3 (human) (UniProt Q9NZJ5)
[7] = target: IRAK1 (human) (UniProt P51617)
[8] = target: MAP4K3 (human) (UniProt Q8IVH8)
[9] = target: MAP4K5 (human) (UniProt Q9Y4K4)
[10] = target: MAPK7 (human) (UniProt Q13164)
[11] = tested on: OXSR1 (human), O95747 [T185E]
[12] = target: PDGFRA (human) (UniProt P16234)
[13] = target: PHKG1 (human) (UniProt Q16816)
PHKG1 (human), sequence (Q16816 whole entry, looked up): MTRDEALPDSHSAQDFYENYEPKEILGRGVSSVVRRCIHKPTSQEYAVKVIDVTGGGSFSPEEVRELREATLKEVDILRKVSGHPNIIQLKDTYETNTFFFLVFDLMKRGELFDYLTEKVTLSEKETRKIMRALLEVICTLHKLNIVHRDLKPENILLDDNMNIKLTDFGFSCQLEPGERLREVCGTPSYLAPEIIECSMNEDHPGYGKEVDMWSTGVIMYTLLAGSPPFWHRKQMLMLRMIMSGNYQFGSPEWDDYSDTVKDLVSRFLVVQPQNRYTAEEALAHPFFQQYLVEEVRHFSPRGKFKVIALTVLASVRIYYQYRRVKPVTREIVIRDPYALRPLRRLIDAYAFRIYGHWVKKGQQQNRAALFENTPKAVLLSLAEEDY

[14] = target: PRKAA1 PRKAB2 PRKAG1 (human) (UniProt O43741+Q13131+P54619)
[15] = target: PTK6 (human) (UniProt Q13882)
[16] = target: SIK2 (human) (UniProt Q9H0K1)
[17] = target: SIK3 (human) (UniProt Q9Y2K2)
[18] = target: STK16 (human) (UniProt O75716)
STK16 (human), sequence (O75716 whole entry, looked up): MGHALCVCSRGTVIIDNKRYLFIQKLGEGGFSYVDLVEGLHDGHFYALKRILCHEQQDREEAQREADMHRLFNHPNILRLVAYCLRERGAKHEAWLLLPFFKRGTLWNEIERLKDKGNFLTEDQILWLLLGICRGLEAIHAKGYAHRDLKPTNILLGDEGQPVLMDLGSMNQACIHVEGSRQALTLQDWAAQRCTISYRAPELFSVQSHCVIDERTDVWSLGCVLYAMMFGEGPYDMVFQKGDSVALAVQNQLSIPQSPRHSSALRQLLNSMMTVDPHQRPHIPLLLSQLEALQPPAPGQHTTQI

[19] = target: STK24 (human) (UniProt Q9Y6E0)
[20] = target: STK33 (human) (UniProt Q9BYT3)
STK33 (human), sequence (Q9BYT3 whole entry, looked up): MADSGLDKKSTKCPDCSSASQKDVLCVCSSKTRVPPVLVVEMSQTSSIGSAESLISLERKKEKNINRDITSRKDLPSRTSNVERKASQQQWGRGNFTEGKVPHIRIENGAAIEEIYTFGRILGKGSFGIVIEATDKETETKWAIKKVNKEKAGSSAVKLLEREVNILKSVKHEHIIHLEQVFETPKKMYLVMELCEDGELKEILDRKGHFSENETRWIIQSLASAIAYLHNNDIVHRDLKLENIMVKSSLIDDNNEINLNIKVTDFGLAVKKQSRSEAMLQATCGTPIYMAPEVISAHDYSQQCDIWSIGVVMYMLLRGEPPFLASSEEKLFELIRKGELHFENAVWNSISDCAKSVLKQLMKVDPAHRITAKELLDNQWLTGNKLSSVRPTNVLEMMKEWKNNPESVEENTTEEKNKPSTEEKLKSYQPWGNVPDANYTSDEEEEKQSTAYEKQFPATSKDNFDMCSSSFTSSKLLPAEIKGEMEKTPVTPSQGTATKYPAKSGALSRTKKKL

[21] = target: TEK (human) (UniProt Q02763)
[22] = target: TESK1 (human) (UniProt Q15569)
[23] = tested on: TGFBR1 (human), P36897 [T204D]
[24] = target: TLK1 (human) (UniProt Q9UKI8)
[25] = target: TSSK1B (human) (UniProt Q9BXA7)
[26] = target: TTBK1 (human) (UniProt Q5TCY1)
[27] = target: TTBK2 (human) (UniProt Q6IQ55)
[28] = target: ULK1 (human) (UniProt O75385)
[29] = target: ULK2 (human) (UniProt Q8IYT8)
[30] = target: WNK1 (human) (UniProt Q9H4A3)
WNK1 (human), sequence (Q9H4A3 whole entry, looked up): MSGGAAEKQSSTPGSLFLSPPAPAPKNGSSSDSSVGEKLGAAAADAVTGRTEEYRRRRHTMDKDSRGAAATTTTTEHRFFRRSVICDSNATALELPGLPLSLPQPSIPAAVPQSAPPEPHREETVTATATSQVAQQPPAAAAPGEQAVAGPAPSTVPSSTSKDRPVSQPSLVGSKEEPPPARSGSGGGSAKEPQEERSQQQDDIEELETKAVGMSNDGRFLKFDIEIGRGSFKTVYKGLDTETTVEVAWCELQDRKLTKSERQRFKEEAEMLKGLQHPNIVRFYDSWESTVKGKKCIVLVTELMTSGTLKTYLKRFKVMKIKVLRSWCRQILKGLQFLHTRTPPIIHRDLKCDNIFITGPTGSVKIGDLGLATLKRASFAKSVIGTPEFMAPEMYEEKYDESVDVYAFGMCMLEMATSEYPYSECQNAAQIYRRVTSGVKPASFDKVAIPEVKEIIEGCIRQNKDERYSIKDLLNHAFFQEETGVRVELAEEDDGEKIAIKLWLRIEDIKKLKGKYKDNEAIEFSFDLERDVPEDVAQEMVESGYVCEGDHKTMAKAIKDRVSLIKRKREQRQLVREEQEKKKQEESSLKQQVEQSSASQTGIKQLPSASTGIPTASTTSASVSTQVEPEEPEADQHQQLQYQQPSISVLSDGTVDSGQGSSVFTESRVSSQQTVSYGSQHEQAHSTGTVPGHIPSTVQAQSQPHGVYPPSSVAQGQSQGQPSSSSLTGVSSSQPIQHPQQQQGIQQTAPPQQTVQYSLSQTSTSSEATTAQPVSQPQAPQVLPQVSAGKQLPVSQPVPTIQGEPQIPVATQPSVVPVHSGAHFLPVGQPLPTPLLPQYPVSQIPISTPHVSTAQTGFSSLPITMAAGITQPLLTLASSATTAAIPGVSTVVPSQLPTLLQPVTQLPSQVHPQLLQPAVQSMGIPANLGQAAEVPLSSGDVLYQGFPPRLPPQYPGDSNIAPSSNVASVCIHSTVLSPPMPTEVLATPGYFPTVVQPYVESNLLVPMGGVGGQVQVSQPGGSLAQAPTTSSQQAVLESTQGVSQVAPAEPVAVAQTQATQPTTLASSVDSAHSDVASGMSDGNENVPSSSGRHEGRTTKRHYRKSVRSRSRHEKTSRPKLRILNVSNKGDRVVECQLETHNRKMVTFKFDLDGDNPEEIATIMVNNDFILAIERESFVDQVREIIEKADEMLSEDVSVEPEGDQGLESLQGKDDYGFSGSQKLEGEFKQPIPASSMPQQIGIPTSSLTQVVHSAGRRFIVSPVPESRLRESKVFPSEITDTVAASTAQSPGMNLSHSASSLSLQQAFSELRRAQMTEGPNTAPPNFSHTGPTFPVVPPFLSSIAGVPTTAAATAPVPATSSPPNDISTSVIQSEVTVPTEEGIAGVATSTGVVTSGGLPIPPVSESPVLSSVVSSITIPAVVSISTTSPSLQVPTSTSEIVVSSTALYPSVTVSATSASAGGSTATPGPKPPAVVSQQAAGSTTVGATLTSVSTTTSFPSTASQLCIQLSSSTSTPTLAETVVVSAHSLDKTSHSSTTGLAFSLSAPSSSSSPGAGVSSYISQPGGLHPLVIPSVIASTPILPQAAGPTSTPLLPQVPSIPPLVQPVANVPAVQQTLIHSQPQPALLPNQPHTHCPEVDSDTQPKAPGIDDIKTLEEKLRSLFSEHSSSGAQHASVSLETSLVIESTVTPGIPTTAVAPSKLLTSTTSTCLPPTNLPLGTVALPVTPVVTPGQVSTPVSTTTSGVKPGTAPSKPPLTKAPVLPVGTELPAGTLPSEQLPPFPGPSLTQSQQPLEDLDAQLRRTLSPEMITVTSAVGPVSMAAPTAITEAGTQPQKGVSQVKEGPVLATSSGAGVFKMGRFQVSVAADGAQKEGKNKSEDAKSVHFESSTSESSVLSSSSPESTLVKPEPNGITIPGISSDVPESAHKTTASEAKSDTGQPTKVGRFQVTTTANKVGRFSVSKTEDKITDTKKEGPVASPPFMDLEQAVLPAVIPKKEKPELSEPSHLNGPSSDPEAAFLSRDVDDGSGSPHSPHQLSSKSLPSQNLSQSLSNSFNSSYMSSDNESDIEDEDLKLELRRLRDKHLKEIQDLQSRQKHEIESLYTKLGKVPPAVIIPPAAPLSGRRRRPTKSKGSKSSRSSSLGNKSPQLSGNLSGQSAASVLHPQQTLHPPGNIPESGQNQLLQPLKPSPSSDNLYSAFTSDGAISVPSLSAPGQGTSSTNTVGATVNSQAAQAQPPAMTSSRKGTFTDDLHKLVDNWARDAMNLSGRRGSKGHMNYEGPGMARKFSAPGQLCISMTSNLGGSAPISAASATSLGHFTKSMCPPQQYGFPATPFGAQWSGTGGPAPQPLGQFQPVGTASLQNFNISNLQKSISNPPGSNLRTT

[31] = target: ZAP70 (human) (UniProt P43403)
ZAP70 (human), sequence (P43403 whole entry, looked up): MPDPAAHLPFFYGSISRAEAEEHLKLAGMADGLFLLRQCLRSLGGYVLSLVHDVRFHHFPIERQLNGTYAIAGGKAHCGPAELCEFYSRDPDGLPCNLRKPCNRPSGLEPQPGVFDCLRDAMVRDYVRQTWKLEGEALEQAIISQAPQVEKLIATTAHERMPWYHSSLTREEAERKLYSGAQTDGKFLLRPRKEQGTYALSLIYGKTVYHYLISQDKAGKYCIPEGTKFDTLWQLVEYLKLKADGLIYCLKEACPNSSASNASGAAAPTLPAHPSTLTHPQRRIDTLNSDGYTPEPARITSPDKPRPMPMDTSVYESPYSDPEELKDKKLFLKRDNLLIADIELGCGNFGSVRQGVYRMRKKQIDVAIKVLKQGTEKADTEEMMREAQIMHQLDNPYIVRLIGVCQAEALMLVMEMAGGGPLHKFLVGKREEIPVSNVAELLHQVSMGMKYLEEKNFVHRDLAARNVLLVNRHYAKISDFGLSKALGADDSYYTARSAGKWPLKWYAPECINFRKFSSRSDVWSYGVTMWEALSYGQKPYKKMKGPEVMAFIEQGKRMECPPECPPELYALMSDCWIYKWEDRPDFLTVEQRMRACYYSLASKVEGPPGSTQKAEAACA

[32] = target: PRKCG (human) (UniProt P05129)

MAP4K5 (human), sequence (Q9Y4K4 whole entry, looked up): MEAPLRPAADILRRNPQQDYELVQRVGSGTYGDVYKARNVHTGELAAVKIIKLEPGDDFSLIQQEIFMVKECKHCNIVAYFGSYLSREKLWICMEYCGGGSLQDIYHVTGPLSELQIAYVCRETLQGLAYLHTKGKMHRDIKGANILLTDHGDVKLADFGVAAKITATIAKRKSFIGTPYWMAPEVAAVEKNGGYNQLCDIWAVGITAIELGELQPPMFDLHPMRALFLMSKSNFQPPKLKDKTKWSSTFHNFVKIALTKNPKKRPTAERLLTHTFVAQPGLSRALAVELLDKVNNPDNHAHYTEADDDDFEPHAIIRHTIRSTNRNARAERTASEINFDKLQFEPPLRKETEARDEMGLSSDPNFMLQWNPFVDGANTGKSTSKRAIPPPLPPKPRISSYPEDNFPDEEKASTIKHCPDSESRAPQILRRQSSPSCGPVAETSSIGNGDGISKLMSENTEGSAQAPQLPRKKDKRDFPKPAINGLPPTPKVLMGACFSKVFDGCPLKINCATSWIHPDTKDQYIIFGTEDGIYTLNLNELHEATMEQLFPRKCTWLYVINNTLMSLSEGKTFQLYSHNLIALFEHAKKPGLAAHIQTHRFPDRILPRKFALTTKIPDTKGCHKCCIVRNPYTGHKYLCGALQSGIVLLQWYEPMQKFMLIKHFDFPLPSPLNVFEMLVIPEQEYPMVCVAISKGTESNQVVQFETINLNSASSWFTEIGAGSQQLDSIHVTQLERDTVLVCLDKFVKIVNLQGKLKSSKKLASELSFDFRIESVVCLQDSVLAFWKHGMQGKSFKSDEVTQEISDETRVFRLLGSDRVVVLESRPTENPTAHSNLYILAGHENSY

Work on `COc1cc(C(=O)N2CCOCC2)c(F)cc1Nc1ncc(C(F)(F)F)c(NC2CC2)n1` yielded a residual activity ([1]; compound 1.0 µM) of 106%, a residual activity ([1]; compound 10.0 µM) of 97% and a residual activity ([2]; compound 1.0 µM) of 68%. It also gave a residual activity ([2]; compound 10.0 µM) of 24%, a residual activity ([3]; compound 1.0 µM) of 87% and a residual activity ([3]; compound 10.0 µM) of 90%. It also gave a residual activity ([4]; compound 1.0 µM) of 90%, a residual activity ([4]; compound 10.0 µM) of 89% and a residual activity ([5]; compound 1.0 µM) of 105%. For the same compound, the residual activity ([5]; compound 10.0 µM) was 100%, the residual activity ([6]; compound 1.0 µM) was 87% and the residual activity ([6]; compound 10.0 µM) was 82%. For the same compound, the residual activity ([7]; compound 1.0 µM) was 98%, the residual activity ([7]; compound 10.0 µM) was 94% and the residual activity ([8]; compound 1.0 µM) was 76%. It also gave a residual activity ([8]; compound 10.0 µM) of 36%, a residual activity ([9]; compound 1.0 µM) of 107% and a residual activity ([9]; compound 10.0 µM) of 91%. For the same compound, the residual activity ([10]; compound 1.0 µM) was 66%, the residual activity ([10]; compound 10.0 µM) was 42% and the residual activity ([11]; compound 1.0 µM) was 95%. The residual activity ([11]; compound 10.0 µM) was 51%, the residual activity ([12]; compound 1.0 µM) was 81% and the residual activity ([12]; compound 10.0 µM) was 76%. For the same compound, the residual activity ([13]; compound 1.0 µM) was 45%, the residual activity ([13]; compound 10.0 µM) was 8% and the residual activity ([14]; compound 1.0 µM) was 82%. For the same compound, the residual activity ([14]; compound 10.0 µM) was 44%, the residual activity ([15]; compound 1.0 µM) was 53% and the residual activity ([15]; compound 10.0 µM) was 22%. The residual activity ([16]; compound 1.0 µM) was 84%, the residual activity ([16]; compound 10.0 µM) was 34% and the residual activity ([17]; compound 1.0 µM) was 95%. The residual activity ([17]; compound 10.0 µM) was 93%, the residual activity ([18]; compound 1.0 µM) was 115% and the residual activity ([18]; compound 10.0 µM) was 101%. For the same compound, the residual activity ([19]; compound 1.0 µM) was 96%, the residual activity ([19]; compound 10.0 µM) was 85% and the residual activity ([20]; compound 1.0 µM) was 47%. It also gave a residual activity ([20]; compound 10.0 µM) of 30%, a residual activity ([21]; compound 1.0 µM) of 85% and a residual activity ([21]; compound 10.0 µM) of 91%. The residual activity ([22]; compound 1.0 µM) was 102%, the residual activity ([22]; compound 10.0 µM) was 118% and the residual activity ([23]; compound 1.0 µM) was 99%. For the same compound, the residual activity ([23]; compound 10.0 µM) was 103%, the residual activity ([24]; compound 1.0 µM) was 106% and the residual activity ([24]; compound 10.0 µM) was 96%. The residual activity ([25]; compound 1.0 µM) was 31%, the residual activity ([25]; compound 10.0 µM) was 7% and the residual activity ([26]; compound 1.0 µM) was 96%. For the same compound, the residual activity ([26]; compound 10.0 µM) was 93%, the residual activity ([27]; compound 1.0 µM) was 91% and the residual activity ([27]; compound 10.0 µM) was 97%. It also gave a residual activity ([28]; compound 1.0 µM) of 98%, a residual activity ([28]; compound 10.0 µM) of 56% and a residual activity ([29]; compound 1.0 µM) of 88%. It also gave a residual activity ([29]; compound 10.0 µM) of 70%, a residual activity ([30]; compound 1.0 µM) of 97% and a residual activity ([30]; compound 10.0 µM) of 106%. For the same compound, the residual activity ([31]; compound 1.0 µM) was 88% and the residual activity ([31]; compound 10.0 µM) was 86%.
`Nc1cccc2c1CN(C1CCC(=O)NC1=O)C2=O` (stereo not given) gave a residual activity ([1]; compound 1.0 µM) of 96%, a residual activity ([1]; compound 10.0 µM) of 101% and a residual activity ([2]; compound 1.0 µM) of 83%. For the same compound, the residual activity ([2]; compound 10.0 µM) was 105%, the residual activity ([4]; compound 1.0 µM) was 99% and the residual activity ([4]; compound 10.0 µM) was 90%. The residual activity ([5]; compound 1.0 µM) was 102%, the residual activity ([5]; compound 10.0 µM) was 102% and the residual activity ([6]; compound 1.0 µM) was 86%. It also gave a residual activity ([6]; compound 10.0 µM) of 101%, a residual activity ([7]; compound 1.0 µM) of 96% and a residual activity ([7]; compound 10.0 µM) of 101%. It also gave a residual activity ([8]; compound 1.0 µM) of 100%, a residual activity ([8]; compound 10.0 µM) of 110% and a residual activity ([9]; compound 1.0 µM) of 109%. It also gave a residual activity ([9]; compound 10.0 µM) of 115%, a residual activity ([10]; compound 1.0 µM) of 98% and a residual activity ([10]; compound 10.0 µM) of 107%. It also gave a residual activity ([11]; compound 1.0 µM) of 91%, a residual activity ([11]; compound 10.0 µM) of 112% and a residual activity ([12]; compound 1.0 µM) of 85%. The residual activity ([12]; compound 10.0 µM) was 82%, the residual activity ([13]; compound 1.0 µM) was 101% and the residual activity ([13]; compound 10.0 µM) was 103%. For the same compound, the residual activity ([14]; compound 1.0 µM) was 106%, the residual activity ([14]; compound 10.0 µM) was 102% and the residual activity ([32]; compound 1.0 µM) was 108%. It also gave a residual activity ([32]; compound 10.0 µM) of 112%, a residual activity ([15]; compound 10.0 µM) of 114% and a residual activity ([16]; compound 1.0 µM) of 83%. The residual activity ([16]; compound 10.0 µM) was 91%, the residual activity ([17]; compound 1.0 µM) was 91% and the residual activity ([17]; compound 10.0 µM) was 94%. For the same compound, the residual activity ([18]; compound 1.0 µM) was 98%, the residual activity ([18]; compound 10.0 µM) was 100% and the residual activity ([19]; compound 1.0 µM) was 82%. For the same compound, the residual activity ([19]; compound 10.0 µM) was 84%, the residual activity ([20]; compound 1.0 µM) was 128% and the residual activity ([20]; compound 10.0 µM) was 119%. The residual activity ([22]; compound 1.0 µM) was 77%, the residual activity ([22]; compound 10.0 µM) was 77% and the residual activity ([23]; compound 1.0 µM) was 105%. For the same compound, the residual activity ([23]; compound 10.0 µM) was 115%, the residual activity ([24]; compound 1.0 µM) was 95% and the residual activity ([24]; compound 10.0 µM) was 106%. It also gave a residual activity ([25]; compound 1.0 µM) of 89%, a residual activity ([25]; compound 10.0 µM) of 100% and a residual activity ([26]; compound 1.0 µM) of 106%. It also gave a residual activity ([26]; compound 10.0 µM) of 118%, a residual activity ([27]; compound 10.0 µM) of 101% and a residual activity ([28]; compound 1.0 µM) of 104%. It also gave a residual activity ([28]; compound 10.0 µM) of 103%, a residual activity ([29]; compound 1.0 µM) of 106% and a residual activity ([29]; compound 10.0 µM) of 105%. It also gave a residual activity ([30]; compound 1.0 µM) of 104%, a residual activity ([30]; compound 10.0 µM) of 106% and a residual activity ([31]; compound 1.0 µM) of 110%. For the same compound, the residual activity ([31]; compound 10.0 µM) was 116%.
